From US10646427B2, “Cosmetic compositions comprising spiculisporic acid and an ester of fatty acid and(poly)glycerol optionally polyoxyalkylenated” (L'OREAL, priority 2013, dated 2020)

Test system: reconstructed Episkin J13 skin model
Assay: Episkin Peeling test (detachment of corneocytes measured by dosage of proteins)
Format: cell-based
Settings: for desquamating efficacy (detachment of corneocytes) compared to 30% glycolic acid reference: 10 min treatment
Description: The Episkin Peeling test measures the detachment of corneocytes of the reconstructed Episkin J13 skin model. At this stage of maturation, the epidermis has a well differentiated stratum corneum (SC).
The sample is treated for 10 minutes with the control or test solution. The sample is taken and placed on the wall of a tube; its surface is then washed with a swab. The washing solution is filtered to preserve only the detached corneocytes. Their presence is measured by a dosage of proteins with the BCA Kit (PIERCE no. 23225).
The reference molecule is glycolic acid (AG). This is one of the compounds used in peeling at rates of occasionally up to 70%. It is applied for short times on the order of a few minutes and then neutralised.
The rate of 30% was used because it allows for good response dynamics with a short application time of 10 min.
Three Episkin batches are used for each study (n=3 per batch and per condition).
The evaluation of the raw materials (MP) is carried out by comparing the results of the MP to those obtained with 30% AG. The MP is effective if it reaches the level of the reference.
They were immersed in water. Spiculisporic acid was salified with potassium (KOH).
The dosage of free proteins, measured by DO, is to proportional to the quantity of corneocytes extracted, and thus to desquamation.

Compound: CCCCCCCC(=O)OCC(O)CO (stereo not shown) [GMCY, Glyceryl caprylate]
- desquamating efficacy (detachment of corneocytes) compared to 30% glycolic acid reference (5% in water): desquamating efficacy (almost) reaching that of the glycolic acid reference at 30%
- desquamating efficacy (detachment of corneocytes) compared to 30% glycolic acid reference (5% in water, listed as glyceryl caprylate): positive, but not significant, desquamation relative to the positive control

Compound: O=C(O)CO [AG, glycolic acid, reference compound]
- detachment of corneocytes measured by dosage of proteins (FIG. 1) (10%, 30% and 50%): dose-dependent effect

Compound: O=C(O)CC(O)(CC(=O)O)C(=O)O [citric acid, Citric acid, reference compound]
- desquamating efficacy (detachment of corneocytes) compared to 30% glycolic acid reference (10% in water): does not reach the effect of the reference
- desquamating efficacy (detachment of corneocytes) compared to 30% glycolic acid reference (30% in water): reaches the efficacy level of the reference

Compound: CCCCCCCCCCC(C(=O)O)C1(C(=O)O)CCC(=O)O1 (stereo not shown) [Spiculisporic acid K+, 4,5-dicarboxy-4-pentadecanolide]
- desquamating efficacy (detachment of corneocytes) compared to 30% glycolic acid reference (1% in water, salified with KOH): no effect on the detachment of corneocytes
- desquamating efficacy (detachment of corneocytes) compared to 30% glycolic acid reference (1% in water, salified with KOH, listed as spiculisporic acid): absence of desquamation
